IC50 and Kd data for 14 compounds are collected here from US20260083851A1 (AVILAR THERAPEUTICS, INC., priority 2022, published 2026).

The target in one assay is TNF (Homo sapiens, UniProt P01375). Nature of the assay: TNF FP Assay. The format is binding. Conditions: TNF 20 nM, 25° C., 2 hours; Table 2. The method, then:
TNF (20 nM) and test compound in 47 mM HEPES pH 6.5, 47 mM NaCl, 0.9 mM EDTA, 0.007% Triton X-100 were incubated at 25° C. for 2 hours. Fluorescence data was read with an Envision and plotted versus Compound concentration and fit to a single-site binding model.

The target of assay [1] is T1, ASGP receptor (biotinylated ASGPR) (Homo sapiens, UniProt P07306).
T1 construct: biotin (biotinylated)
T1 sequence (P07306 1-291): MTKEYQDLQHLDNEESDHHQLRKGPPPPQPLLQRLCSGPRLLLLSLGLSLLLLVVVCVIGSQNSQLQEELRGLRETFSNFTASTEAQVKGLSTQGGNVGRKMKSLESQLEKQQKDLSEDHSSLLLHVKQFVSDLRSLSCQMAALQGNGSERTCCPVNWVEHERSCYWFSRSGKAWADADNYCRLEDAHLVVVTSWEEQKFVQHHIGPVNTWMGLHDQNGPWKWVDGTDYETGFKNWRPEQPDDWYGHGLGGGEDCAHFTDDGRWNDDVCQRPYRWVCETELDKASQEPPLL
The format is binding. The note with it: SPR; Table 2; read-out: ASGPR SPR Binding KD.

Each structure is given as a SMILES string.

The IC50 is the concentration at which inhibition is half-maximal. A lower IC50 goes with greater potency in that assay. In general, Kd refers to a measure of binding affinity in units of concentration.

TNF, sequence (P01375 77-233 limits assumed): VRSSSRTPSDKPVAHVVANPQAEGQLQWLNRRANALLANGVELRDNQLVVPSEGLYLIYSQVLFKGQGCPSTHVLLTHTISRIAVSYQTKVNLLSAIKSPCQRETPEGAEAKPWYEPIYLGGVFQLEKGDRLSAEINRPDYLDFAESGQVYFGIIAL

Take `O=C(CC(=O)NC[C@H]1OC[C@H](Nc2cncc(C(F)(F)F)n2)[C@@H](O)[C@H]1O)NCCOCCOCCOCc1ccc(-c2cccc3ccncc23)c(OCCc2ccc(-c3cccc4ccncc34)cc2)c1` [compound 1]: the IC50 at TNF was 0.1 to 0.5 µM. For the same compound, in assay [1], the Kd was less than 0.1 µM.
`CC1(C)C(=O)c2ccc(-c3cnc(N4CCN5C(=O)N(CCCNC(=O)[C@H]6CC[C@H](C(=O)NC[C@H]7OC[C@H](Nc8cncc(C(F)(F)F)n8)[C@@H](O)[C@H]7O)CC6)C[C@@H]5C4)nc3)nc2N1Cc1cccnc1C#N` [compound 15]: the IC50 on TNF is more than 1 µM. Moreover, the Kd in assay [1] was less than 0.1 µM.
Taken in the same sequence, the figures for `O=C(CCOCC(COCCC(=O)NCCOCCOCCOCCOC[C@H]1OC[C@H](Nc2cncc(C(F)(F)F)n2)[C@@H](O)[C@H]1O)NCC(=O)N1CCN(Cc2ccc(-c3c[nH]c4ccncc34)c(OCCc3ccc(-c4cccc5ccncc45)cc3)c2)CC1)NCCOCCOCCOCCOC[C@H]1OC[C@H](Nc2cncc(C(F)(F)F)n2)[C@@H](O)[C@H]1O` [compound 2] were more than 1 µM and less than 0.1 µM.
On TNF, `O=C(COCCOCCOCCOCCOCC(=O)N1CCN(Cc2ccc(-c3c[nH]c4ccncc34)c(OCCc3ccc(-c4cccc5ccncc45)cc3)c2)CC1)NC[C@H]1OC[C@H](Nc2cncc(C(F)(F)F)n2)[C@@H](O)[C@H]1O` [compound 7] displayed an IC50 of less than 0.1 µM. In addition, the Kd in assay [1] was less than 0.1 µM.
The compound `CC1(C)C(=O)c2ccc(-c3cnc(N4CCN5C(=O)N(CCCNC(=O)CCN6CCN(CC(=O)NC[C@H]7OC[C@H](Nc8cncc(C(F)(F)F)n8)[C@@H](O)[C@H]7O)CC6)C[C@@H]5C4)nc3)nc2N1Cc1cccnc1C#N` [compound 11] displayed an IC50 against TNF of 0.1 to 0.5 µM. Further, the Kd in assay [1] was less than 0.1 µM.
At TNF, `CC1(C)C(=O)c2ccc(-c3cnc(N4CCN5C(=O)N(CCCNC(=O)COc6cccc(CC(=O)NC[C@H]7OC[C@H](Nc8cncc(C(F)(F)F)n8)[C@@H](O)[C@H]7O)c6)C[C@@H]5C4)nc3)nc2N1Cc1cccnc1C#N` [compound 16] returned an IC50 of more than 1 µM. Further, the Kd in assay [1] is less than 0.1 µM.
Taken in the same sequence, the figures for `CC1(C)C(=O)c2ccc(-c3cnc(N4CCN5C(=O)N(CCCNC(=O)COc6ccc(CN7CCN(C[C@H]8OC[C@H](Nc9cncc(C(F)(F)F)n9)[C@@H](O)[C@H]8O)CC7)cc6)C[C@@H]5C4)nc3)nc2N1Cc1cccnc1C#N` [compound 12] were 0.1 to 0.5 µM and less than 0.1 µM.
On the same counts, the results for `O=C(NC[C@H]1OC[C@H](Nc2cncc(C(F)(F)F)n2)[C@@H](O)[C@H]1O)N1CCN(Cc2ccc(-c3c[nH]c4ccncc34)c(OCCc3ccc(-c4cccc5ccncc45)cc3)c2)CC1` [compound 8] are more than 1 µM and less than 0.1 µM.
As to `CC1(C)C(=O)c2ccc(-c3cnc(N4CCN5C(=O)N(CCCNC(=O)c6ccc(C(=O)NC[C@H]7OC[C@H](Nc8cncc(C(F)(F)F)n8)[C@@H](O)[C@H]7O)cc6)C[C@@H]5C4)nc3)nc2N1Cc1cccnc1C#N` [compound 13], at TNF, the IC50 was more than 1 µM. For the same compound, the Kd in assay [1] is less than 0.1 µM.
On the same counts, the results for `CC1(C)C(=O)c2ccc(-c3cnc(N4CCN5C(=O)N(CCOCCNC(=O)CNC[C@H]6OC[C@H](Nc7cncc(C(F)(F)F)n7)[C@@H](O)[C@H]6O)C[C@@H]5C4)nc3)nc2N1Cc1cccnc1C#N` [compound 10] are more than 1 µM and less than 0.1 µM.
Taken in the same sequence, the figures for `O=C(CCOCC(COCCC(=O)NCCOCCOCCOCCOC[C@H]1OC[C@H](Nc2cncc(C(F)(F)F)n2)[C@@H](O)[C@H]1O)NC(=O)COCCOCCOCC(=O)N1CCN(Cc2ccc(-c3c[nH]c4ccncc34)c(OCCc3ccc(-c4cccc5ccncc45)cc3)c2)CC1)NCCOCCOCCOCCOC[C@H]1OC[C@H](Nc2cncc(C(F)(F)F)n2)[C@@H](O)[C@H]1O` [compound 9] were more than 1 µM and less than 0.1 µM.
On the same counts, the results for `CC1(C)C(=O)c2ccc(-c3cnc(N4CCN5C(=O)N(CCOCCNC(=O)[C@H]6CC[C@H](C(=O)NC[C@H]7OC[C@H](Nc8cncc(C(F)(F)F)n8)[C@@H](O)[C@H]7O)CC6)C[C@@H]5C4)nc3)nc2N1Cc1cccnc1C#N` [compound 17] are 0.5 to 1 µM and less than 0.1 µM.
As for `O=C(COCCOCC(=O)N1CCN(Cc2ccc(-c3c[nH]c4ccncc34)c(OCCc3ccc(-c4cccc5ccncc45)cc3)c2)CC1)NC[C@H]1OC[C@H](Nc2cncc(C(F)(F)F)n2)[C@@H](O)[C@H]1O` [compound 3], the IC50 on TNF is less than 0.1 µM. Moreover, the Kd in assay [1] was less than 0.1 µM.
At TNF, `CC1(C)C(=O)c2ccc(-c3cnc(N4CCN5C(=O)N(CCCNC(=O)CNC[C@H]6OC[C@H](Nc7cncc(C(F)(F)F)n7)[C@@H](O)[C@H]6O)C[C@@H]5C4)nc3)nc2N1Cc1cccnc1C#N` [compound 14] displayed an IC50 of 0.1 to 0.5 µM. Also, the Kd in assay [1] was less than 0.1 µM.
